Experimental data: patent EP1984353B1, “AURORA KINASE MODULATORS AND METHOD OF USE” (Amgen, Inc, priority 2006, dated 2007)
Like-named read-outs stand apart in the source and are kept apart here.

Tests used:
AuroraA-TPX2 = target: T1, AuroraA-TPX2 (Homo sapiens, UniProt O14965); assay: AuroraA-TPX2 Homogeneous Time Resolved Fluorescent (HTRF) kinase assay; assay type: biochemical; settings: average, read-out: AurA/TP X2_ IC50_IP (Avg)
T1 construct: 20 µL of AuroraA-TPX2 KD GST; GST
T1 sequence (O14965 133-383 limits assumed): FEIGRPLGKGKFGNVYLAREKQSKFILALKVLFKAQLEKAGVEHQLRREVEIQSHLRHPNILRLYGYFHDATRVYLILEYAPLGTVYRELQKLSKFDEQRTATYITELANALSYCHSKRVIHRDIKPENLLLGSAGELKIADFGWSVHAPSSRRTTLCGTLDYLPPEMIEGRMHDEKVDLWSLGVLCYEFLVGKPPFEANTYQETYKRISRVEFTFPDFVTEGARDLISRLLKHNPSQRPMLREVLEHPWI
T1 sequence (Q9ULW0 1-43 partner limits assumed): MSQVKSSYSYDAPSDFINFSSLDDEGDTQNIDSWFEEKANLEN
Protocol: AuroraA-TPX2-Homogeneous Time Resolved Fluorescent (HTRF) Kinase Assay:
The Aurora-A HTRF assay begins with Aurora-A in the presence of ATP phosphorylating the biotinylated peptide PLK. The reaction incubates for about 120 min. Detection reagents are added to quench the reaction. These agents stop the reaction by diluting out the enzyme and chelating the metals due to the presence of EDTA. After addition, the assay is incubated overnight to allow the detection reagents to equilibrate.
The final concentration of PLK is about 1 µM. […] Buffer conditions are as follows: 60mM HEPES pH 7.5, 25mM NaCl, 10mM MgCl, 2mM DTT, 0.05% BSA.
(§1) The assay is quenched and stopped with 160 µL, of detection reagent. Detection reagents are as follows: Buffer made of 50mM Tris, pH 7.5, 100mM NaCl, 3mM EDTA, 0.05% BSA, 0.1% Tween20. Added to this buffer prior to reading is Steptavidin allophycocyanin (SA-APC) at a final conc in the assay of 0.0005 mg/mL, and europilated anti-phosphoPLK Ab (Eu-anti-PLK) at a final conc of 0.02 nM.
The assay plate is read in either a Discovery or a RubyStar. The eu-anti-PLK is excited at 320 nm and emits at 615 nm to excite the SA-APC which in turn emits at 655 nm.

AuroraB = target: T2, AuroraB (Homo sapiens, UniProt Q96GD4); assay: AuroraB Homogeneous Time Resolved Fluorescent (HTRF) kinase assay; assay type: biochemical; settings: average, read-out: AurB_ _IC50_IP (Avg)
T2 construct: 20 µL of AuroraB FL His; His
T2 sequence (Q96GD4 whole entry): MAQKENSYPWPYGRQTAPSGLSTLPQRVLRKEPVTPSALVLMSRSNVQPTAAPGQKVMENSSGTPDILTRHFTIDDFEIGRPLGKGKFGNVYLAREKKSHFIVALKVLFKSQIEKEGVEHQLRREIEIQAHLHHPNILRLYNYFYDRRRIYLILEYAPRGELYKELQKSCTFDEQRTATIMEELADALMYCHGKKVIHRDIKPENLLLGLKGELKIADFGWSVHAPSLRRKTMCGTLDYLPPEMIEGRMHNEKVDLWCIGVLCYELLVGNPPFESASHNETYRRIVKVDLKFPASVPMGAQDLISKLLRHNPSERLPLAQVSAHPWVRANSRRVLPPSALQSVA
Protocol: AuroraB-Homogeneous Time Resolved Fluorescent (HTRF) Kinase Assay:
The AuroraB HTRF assay begins with AuroraB in the presence of ATP phosphorylating the biotinylated peptide Histone H3. The reaction incubates for about 90 min. the reaction is quentched by addition of detection reagents, which stop the reaction by diluting out the enzyme and chelating the metals due to the presence of EDTA. After addition, the assay is incubated for about 60 min to allow detection reagents to equilibrate.
The AuroraB HTRF assay comprises 1 µL of compound in 100% DMSO, 20 µL of ATP and biotinylated Histone H3, and 20 µL of AuroraB FL His for a final volume of 41 µL. The final concentration of Histone H3 is 0.1 µM. The final concentration of ATP is 23 µM (Km(app) = 23 µM+/-2.6) and the final concentration of AuroraB is 400 pM. Buffer conditions are as follows: 50mM HEPES pH 7.5, 5mM NaCl, 0.5mM MgCl, 0.5mM MnCl, 2mM DTT, 0.05% BSA.
as §1, with “µL” for “µL,”, “0.001” for “0.0005”, “anti-phosphoHistoneH3” for “anti-phosphoPLK”, “(Eu-anti-HisH3)” for “(Eu-anti-PLK)”, “0.064” for “0.02”
The assay plate is read in either a Discovery or a RubyStar. The eu-anti-HisH3 is excited at 320 nm and emits at 615 nm to excite the SA-APC which in turn emits at 655 nm. The ratio of SA-APC at 655 nm (excited due to close proximity to the Eu-anti-HisH3 because of phosphorylation of the peptide) to free Eu-anti-HisH3 at 615 nm will give substrate phosphorylation.

[1] = given as numbers, unit inferred

Row | SMILES | IC50 (AuroraA-TPX2; [1]) [nM] | IC50 (AuroraB; [1]) [nM] | IC50 (AuroraA-TPX2; given as class symbols) [nM] | IC50 (AuroraB; given as class symbols) [nM]
1 | C[C@@H](O)c1ccc(-c2nnc(Nc3ccc(Oc4ncccc4-c4ccnc(N)n4)cc3)c3ccccc23)cc1 [compound 256, (1R)-1-(4-(4-((4-((3-(2-amino-4-pyrimidinyl)-2-pyridinyl)oxy)phenyl)amino)-1-phthalazinyl)phenyl)ethanol] | 149 | 1.8 | – | –
2 | C[C@H](O)c1ccc(-c2nnc(Nc3ccc(Oc4ncccc4-c4ccnc(N)n4)cc3)c3ccccc23)cc1 [compound 257, (1S)-1-(4-(4-((4-((3-(2-amino-4-pyrimidinyl)-2-pyridinyl)oxy)phenyl)amino)-1-phthalazinyl)phenyl)ethanol] | – | – | ≤ 100 | ≤ 100
3 | CN1C[C@@H]2C[C@H]1CN2c1nnc(Nc2ccc(Oc3ncccc3-c3ccnc(N)n3)cc2)c2ccccc12 [compound 258, N-(4-((3-(2-amino-4-pyrimidinyl)-2-pyridinyl)oxy)phenyl)-4-((1S,4S)-5-methyl-2,5-diazabicyclo[2.2.1]hept-2-yl)-1-phthalazinamine] | – | – | 500 to 2500 | 100 to 500
4 | Nc1nccc(-c2cccnc2Oc2ccc(Nc3ncc(-c4ccc(Cl)cc4)c4ccccc34)cc2)n1 [compound 265, N-(4-((3-(2-amino-4-pyrimidinyl)-2-pyridinyl)oxy)phenyl)-4-(4-chlorophenyl)-1-isoquinolinamine] | – | – | ≤ 100 | ≤ 100
5 | Nc1nccc(-c2cccnc2Oc2ccc(Nc3ncc(-c4ccccc4)c4ccccc34)cn2)n1 [compound 266, N-(6-((3-(2-amino-4-pyrimidinyl)-2-pyridinyl)oxy)-3-pyridinyl)-4-phenyl-1-isoquinolinamine] | – | – | ≤ 100 | ≤ 100
6 | c1ccc(-c2nnc(Nc3ccc(Oc4ncccc4-c4ccnc(NCCCN5CCCCC5)n4)nc3)c3ccccc23)cc1 [compound 267, 4-phenyl-N-(6-((3-(2-((3-(1-piperidinyl)propyl)amino)-4-pyrimidinyl)-2-pyridinyl)oxy)-3-pyridinyl)-1-phthalazinamine] | 96.4 | 10.4 | – | –
7 | c1ccc(-c2nnc(Nc3ccc(Oc4ncccc4-n4ccnc4)cc3)c3ccccc23)cc1 [compound 268, N-(4-((3-(1H-imidazol-1-yl)-2-pyridinyl)oxy)phenyl)-4-phenyl-1-phthalazinamine] | – | – | 500 to 2500 | 500 to 2500
8 | CC(C)c1nnc(Nc2ccc(Oc3ncccc3-c3ccnc(N)n3)nc2)c2ccccc12 [compound 269, N-(6-((3-(2-amino-4-pyrimidinyl)-2-pyridinyl)oxy)-3-pyridinyl)-4-(1-methylethyl)-1-phthalazinamine] | – | – | ≤ 100 | ≤ 100
9 | Cc1cccc(-c2nnc(Nc3ccc(Oc4ncccc4-c4ccnc(N)n4)nc3)c3ccccc23)n1 [compound 270, N-(6-((3-(2-amino-4-pyrimidinyl)-2-pyridinyl)oxy)-3-pyridinyl)-4-(6-methyl-2-pyridinyl)-1-phthalazinamine] | – | – | ≤ 100 | ≤ 100
10 | Nc1nccc(-c2cccnc2Oc2ccc(Nc3nnc(C4CCCCC4)c4ccccc34)cc2)n1 [compound 272, N-(4-((3-(2-amino-4-pyrimidinyl)-2-pyridinyl)oxy)phenyl)-4-cyclohexyl-1-phthalazinamine] | 19.7 | 5.5 | – | –
11 | CC(C)c1nnc(Nc2ccc(Oc3ncccc3-c3ccnc(N)n3)cc2)c2ccccc12 [compound 273, N-(4-((3-(2-amino-4-pyrimidinyl)-2-pyridinyl)oxy)phenyl)-4-(1-methylethyl)-1-phthalazinamine] | – | – | 100 to 500 | ≤ 100
12 | Cc1cccc(-c2nnc(Nc3ccc(Oc4ncccc4-c4ccnc(NCCCN5CCN(C)CC5)n4)cc3)c3ccccc23)n1 [compound 275, N-(4-((3-(2-((3-(4-methyl-1-piperazinyl)propyl)amino)-4-pyrimidinyl)-2-pyridinyl)oxy)phenyl)-4-(6-methyl-2-pyridinyl)-1-phthalazinamine] | 94.9 | 13.4 | – | –
